Test results published in patent US20050282840A1, “Methods of modulating neurotrophin-mediated activity” (PainCeptor Pharma Corporation, priority 2004, published 2005).
Where two headings read alike, the source gives them in different places.

Legend:
[1] = molecular target: T1, p75^NTR receptors (PC12 cells) (Rattus norvegicus, UniProt P07174); experiment: Basic screening assay: binding of 125I-BDNF to PC12 cells; settings: read-out: BDNF Activity % Maximal Binding
T1 construct: endogenous in cells; host or cells: PC12 cells
T1 sequence (P07174 30-425): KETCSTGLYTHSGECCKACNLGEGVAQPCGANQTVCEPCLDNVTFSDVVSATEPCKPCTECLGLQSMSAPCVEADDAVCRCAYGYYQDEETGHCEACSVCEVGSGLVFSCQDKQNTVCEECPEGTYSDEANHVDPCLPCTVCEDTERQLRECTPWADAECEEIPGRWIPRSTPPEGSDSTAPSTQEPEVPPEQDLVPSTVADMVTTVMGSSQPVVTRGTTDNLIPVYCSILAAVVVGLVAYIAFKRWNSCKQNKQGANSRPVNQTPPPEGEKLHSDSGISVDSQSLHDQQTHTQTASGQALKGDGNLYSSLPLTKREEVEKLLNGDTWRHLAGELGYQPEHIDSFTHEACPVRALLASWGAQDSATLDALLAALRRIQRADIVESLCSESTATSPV
T1 sequence (P23560 129-247 partner): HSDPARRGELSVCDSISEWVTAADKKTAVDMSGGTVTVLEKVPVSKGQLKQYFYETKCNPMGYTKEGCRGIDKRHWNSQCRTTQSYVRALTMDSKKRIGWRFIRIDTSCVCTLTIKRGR
In short: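 4×10^6 PC12 cells incubated 2 h at 4° C, rotating, with 0.5 nM ^125I-BDNF (final) and compound at 50 μM, in duplicate or more. Bound ligand separated through 10% glycerol by centrifugation and counted by gamma counter; specific binding is Bmax minus NSB; inhibitors followed up for EC50.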

[2] = tested on: p75^NTR receptors (PC12 cells); experiment: Basic screening assay: binding of 125I-NGF to PC12 cells; settings: test compound 50 μM, 0.5 nM 125I-NGF, PC12 cells, 2 h at 4° C., specific binding as percent of control
In short: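 Inhibition of 0.5 nM 125I-NGF binding to p75NTR on PC12 cells was measured with compounds at 50 μM during 2 h rotation at 4° C. Cell-bound radioactivity from glycerol-cushion centrifugation was gamma-counted, giving NSB-corrected binding as % of control specific binding.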

[3] = Table 4, test compound 50 μM, 0.5 nM 125I-BDNF, PC12 cells, 2 h at 4° C., specific binding as percent of control
[4] = Table 2, test compound 50 μM, 0.5 nM 125I-BDNF, PC12 cells, 2 h at 4° C., specific binding as percent of control
[5] = Table 1, test compound 50 μM, 0.5 nM 125I-BDNF, PC12 cells, 2 h at 4° C., specific binding as percent of control

O=C1NC(=S)NC(=O)C1=Cc1ccc(-c2ccc([N+](=O)[O-])cc2Cl)o1 [Compound 4, 5-[5-(2-Chloro-4-nitrophenyl)furan-2-ylmethylene]-2-thioxo-dihydro-pyrimidine-4,6-dione]
activity at 50 µM [1]: 0 to 10% | NGF Activity % Maximal Binding ([2]; Table 1): * (50 < *)

O=C(O)CCCN1C(=O)C(=Cc2ccc(-c3ccc([N+](=O)[O-])cc3)o2)SC1=S [Compound 98, 4-{5-[5-(4-Nitrophenyl)furan-2-ylmethylene]-4-oxo-2-thioxo-thiazolidin-3-yl}-butyric acid]
activity at 50 µM [1, 3]: > 50% | NGF Activity % Maximal Binding ([2]; Table 4): * (50 < *)

Cc1cc(C(=O)O)ccc1-c1ccc(/C=C2\SC(=O)N(C)C2=O)o1 [Compound 76, 3-Methyl-4-[5-(3-methyl-2,4-dioxo-thiazolidin-5-ylidenemethyl)furan-2-yl]benzoic acid]
activity at 50 µM [1, 4]: 0 to 10% | NGF Activity % Maximal Binding ([2]; Table 2): X (40 < X < 50)

CCN1C(=O)/C(=C/c2ccc(-c3ccc([N+](=O)[O-])cc3)o2)NC1=S [Compound 55, 3-Ethyl-5-[5-(4-nitrophenyl)furan-2-ylmethylene]-2-thioxo-imidazolidin-4-one]
activity at 50 µM [1, 5]: 30 to 40% | NGF Activity % Maximal Binding ([2]; Table 1): * (50 < *)

COC(=O)CN1C(=O)S/C(=C\c2ccc(-c3ccc([N+](=O)[O-])cc3)o2)C1=O [Compound 50, {5-[5-(4-Nitrophenyl)furan-2-ylmethylene]-2,4-dioxo-thiazolidin-3-yl}-acetic acid methyl ester]
activity at 50 µM [1, 5]: 30 to 40% | NGF Activity % Maximal Binding ([2]; Table 1): * (50 < *)

COC(=O)C(C)N1C(=O)S/C(=C/c2ccc(-c3ccc(C)c([N+](=O)[O-])c3)o2)C1=O (centres unmarked) [Compound 64, 2-{5-[5-(4-Methyl-3-nitrophenyl)furan-2-ylmethylene]-2,4-dioxo-thiazolidin-3-yl}-propionic acid methyl ester]
activity at 50 µM [1, 5]: 40 to 50% | NGF Activity % Maximal Binding ([2]; Table 1): * (50 < *)

CCOC(=O)c1ccc(-c2ccc(/C=C3/NC(=O)N(c4ccccc4)C3=O)o2)cc1 [Compound 54, 4-[5-(2,5-Dioxo-1-phenyl-imidazolidin-4-ylidenemethyl)furan-2-yl]benzoic acid ethyl ester]
activity at 50 µM [1, 5]: 30 to 40% | NGF Activity % Maximal Binding ([2]; Table 1): * (50 < *)

Cc1ccc(N2NC(=O)C(=Cc3ccc(-c4ccc([N+](=O)[O-])cc4Cl)o3)C2=O)cc1C [Compound 23, 4-[5-(2-Chloro-4-nitrophenyl)furan-2-ylmethylene]-1-(3,4-dimethylphenyl)-pyrazolidine-3,5-dione]
activity at 50 µM [1, 5]: 0 to 10% | NGF Activity % Maximal Binding ([2]; Table 1): * (50 < *)

O=C1NC(=S)S/C1=C/c1ccc(-c2ccc(Cl)c([N+](=O)[O-])c2)o1 [Compound 51, 5-[5-(4-Chloro-3-nitrophenyl)furan-2-ylmethylene]-2-thioxo-thiazolidin-4-one]
activity at 50 µM [1, 5]: 30 to 40% | NGF Activity % Maximal Binding ([2]; Table 1): * (50 < *)

CCOC(=O)c1ccc(-c2ccc(C=C3C(=O)NC(=S)NC3=O)o2)cc1 [Compound 99, 4-[5-(4,6-Dioxo-2-thioxo-tetrahydro-pyrimidin-5-ylidenemethyl)furan-2-yl]benzoic acid ethyl ester]
activity at 50 µM [1]: > 50% | NGF Activity % Maximal Binding ([2]; Table 4): * (50 < *)

Cc1cc([N+](=O)[O-])ccc1-c1ccc(C=C2NC(=S)NC2=O)o1 [Compound 94, 5-[5-(2-Methyl-4-nitrophenyl)furan-2-ylmethylene]-2-thioxo-imidazolidin-4-one]
activity at 50 µM [1, 3]: > 50% | NGF Activity % Maximal Binding ([2]; Table 4): * (50 < *)

CCCSC1=NC(=Cc2ccc(-c3ccc([N+](=O)[O-])cc3Cl)o2)C(=O)S1 [Compound 62, 4-[5-(2-Chloro-4-nitrophenyl)furan-2-ylmethylene]-2-propylsulfanyl-4H-thiazol-5-one]
activity at 50 µM [1, 5]: 40 to 50% | NGF Activity % Maximal Binding ([2]; Table 1): * (50 < *)

Cc1cc(C(=O)O)ccc1-c1ccc(/C=C2\C(=O)NC(=O)N(c3ccccc3F)C2=O)o1 [Compound 66, 4-{5-[1-(2-Fluorophenyl)-2,4,6-trioxo-tetrahydro-pyrimidin-5-ylidenemethyl]furan-2-yl}-3-methylbenzoic acid]
activity at 50 µM [1]: 0 to 10% | NGF Activity % Maximal Binding ([2]; Table 2): XXX (20 < XXX < 30)

COc1cc([N+](=O)[O-])ccc1-c1ccc(/C=C2\SC(=S)NC2=O)o1 [Compound 101, 5-[5-(2-Methoxy-4-nitrophenyl)furan-2-ylmethylene]-2-thioxo-thiazolidin-4-one]
activity at 50 µM [1, 3]: > 50% | NGF Activity % Maximal Binding ([2]; Table 4): * (50 < *)

COC(=O)c1cccc(-c2ccc(/C=C3/NC(=O)N(Cc4ccccc4F)C3=O)o2)c1C [Compound 139, 3-{5-[1-(2-Fluorobenzyl)-2,5-dioxo-imidazolidin-4-ylidenemethyl]furan-2-yl}-2-methylbenzoic acid methyl ester]
activity at 50 µM [1, 3]: > 50% | NGF Activity % Maximal Binding ([2]; Table 4): * (50 < *)

Cc1ccc(N2NC(=O)/C(=C/c3ccc(-c4ccc(S(N)(=O)=O)cc4)o3)C2=O)cc1 [Compound 102, 4-[5-(3,5-Dioxo-1-p-tolyl-pyrazolidin-4-ylidenemethyl)furan-2-yl]benzenesulfonamide]
activity at 50 µM [1, 3]: > 50% | NGF Activity % Maximal Binding ([2]; Table 4): * (50 < *)

Cc1cccc(N2NC(=O)/C(=C/c3ccc(-c4ccc(Cl)c([N+](=O)[O-])c4)o3)C2=O)c1 [Compound 44, 4-[5-(4-Chloro-3-nitrophenyl)furan-2-ylmethylene]-1-m-tolyl-pyrazolidine-3,5-dione]
activity at 50 µM [1, 5]: 30 to 40% | NGF Activity % Maximal Binding ([2]; Table 1): * (50 < *)

O=C(O)CCCN1C(=O)C(=Cc2ccc(-c3cccc([N+](=O)[O-])c3)o2)SC1=S [Compound 84, 4-{5-[5-(3-Nitrophenyl)furan-2-ylmethylene]-4-oxo-2-thioxo-thiazolidin-3-yl}-butyric acid]
activity at 50 µM [1, 4]: 40 to 50% | NGF Activity % Maximal Binding ([2]; Table 2): XXXXX (0 < XXXXX < 10)

CCOC(=O)CN1C(=O)S/C(=C/c2ccc(-c3ccc([N+](=O)[O-])cc3Cl)o2)C1=O [Compound 132, {5-[5-(2-Chloro-4-nitrophenyl)furan-2-ylmethylene]-2,4-dioxo-thiazolidin-3-yl}-acetic acid ethyl ester]
activity at 50 µM [1, 3]: > 50% | NGF Activity % Maximal Binding ([2]; Table 4): * (50 < *)

O=C1NC(=Cc2ccc(-c3ccc(Cl)c([N+](=O)[O-])c3)o2)C(=O)N1c1ccccc1 [Compound 127, 5-[5-(4-Chloro-3-nitrophenyl)furan-2-ylmethylene]-3-phenyl-imidazolidine-2,4-dione]
activity at 50 µM [1, 3]: > 50% | NGF Activity % Maximal Binding ([2]; Table 4): * (50 < *)

COC(=O)C(C)N1C(=O)S/C(=C/c2ccc(-c3cc(C(=O)O)ccc3C)o2)C1=O (centres unmarked) [Compound 29, 3-{5-[3-(1-Methoxycarbonyl-ethyl)-2,4-dioxo-thiazolidin-5-ylidenemethyl]furan-2-yl}-4-methylbenzoic acid]
activity at 50 µM [1, 5]: 10 to 20% | NGF Activity % Maximal Binding ([2]; Table 1): * (50 < *)

COC(=O)c1cccc(-c2ccc(C=C3C(=O)NC(=S)NC3=O)o2)c1 [Compound 107, 3-[5-(4,6-Dioxo-2-thioxo-tetrahydro-pyrimidin-5-ylidenemethyl)furan-2-yl]benzoic acid methyl ester]
activity at 50 µM [1]: > 50% | NGF Activity % Maximal Binding ([2]; Table 4): * (50 < *)

O=C(O)c1cc(-c2ccc(/C=C3\NC(=O)N(Cc4ccc(F)cc4)C3=O)o2)ccc1Cl [Compound 28, 2-Chloro-5-{5-[1-(4-fluorobenzyl)-2,5-dioxo-imidazolidin-4-ylidenemethyl]furan-2-yl}benzoic acid]
activity at 50 µM [1, 5]: 10 to 20% | NGF Activity % Maximal Binding ([2]; Table 1): * (50 < *)

Cc1cc(-c2ccc(C=C3NC(=S)NC3=O)o2)ccc1[N+](=O)[O-] [Compound 95, 5-[5-(3-Methyl-4-nitrophenyl)furan-2-ylmethylene]-2-thioxo-imidazolidin-4-one]
activity at 50 µM [1, 3]: > 50% | NGF Activity % Maximal Binding ([2]; Table 4): * (50 < *)

Cc1ccc(-c2ccc(/C=C3/SC(=S)N(CC(=O)O)C3=O)o2)cc1[N+](=O)[O-] [Compound 14, {5-[5-(4-Methyl-3-nitrophenyl)furan-2-ylmethylene]-4-oxo-2-thioxo-thiazolidin-3-yl}-acetic acid]
activity at 50 µM [1, 5]: 0 to 10% | NGF Activity % Maximal Binding ([2]; Table 1): * (50 < *)
